PubChem BioAssay AID540270 (Broad Institute, 2011)
Calls of active or inactive are those of the source. No rule for the calls is given here.

Biological target: Heat shock protein HSP 90-alpha (Homo sapiens) (UniProt P07900)
Assay: growth inhibition of yeast carrying human Hsp90, dose response, counter-screen, plate reader, cherry-picked samples (AID 540270)
Settings: yeast expressing human Hsp90, growth

## CC(=NNC(=S)N1CC2CCC(CC2)C1)c1nccs1
At 26 µM (top of the series)
  activity, negative = inhibition: inactive

## O=C(CSCC(=O)N1CCCCC1)Nc1nc(-c2ccc(Cl)s2)cs1
At 26 µM (top of the series)
  activity, negative = inhibition: inactive

## O=C(O)/C=C/c1cn(-c2ccccc2)nc1-c1cc2ccccc2o1
At 26 µM (top of the series)
  activity, negative = inhibition: inactive

## O=C(O)c1cccc(N/N=C/c2cc(Br)cc(Br)c2O)c1
At 26 µM (top of the series)
  activity, negative = inhibition: inactive

## O=C1S/C(=C/c2ccc(N3CCOCC3)o2)C(=O)N1Cc1c(F)cccc1Cl
At 26 µM (top of the series)
  activity, negative = inhibition: inactive

## CC1(C)N=C(SCC(=O)Nc2ccc(Cl)cc2Cl)C(c2ccccc2)=N1
At 26 µM (top of the series)
  activity, negative = inhibition: inactive

## Cc1ccc(/C=C2/NC(=O)N(Cc3ccc(Br)cc3)C2=O)o1
At 26 µM (top of the series)
  activity, negative = inhibition: inactive

## NC(=O)/C=C\C(=O)Nc1cccc(C(F)(F)F)c1
At 26 µM (top of the series)
  activity, negative = inhibition: inactive

## CCN(CC)c1ccc(/C=C2/SC(=O)N(C(C)C)C2=O)o1
At 12 µM (top of the series)
  activity, negative = inhibition: inactive

## Cc1ccc(O)c(NC(=S)NC(=O)c2ccc(-c3ccc(Cl)cc3)o2)c1
At 26 µM (top of the series)
  activity, negative = inhibition: inactive

## O=C1C=CC(=O)N1Cc1ccccc1
At 26 µM (top of the series)
  activity, negative = inhibition: inactive

## O=C(COc1ccc(Cl)cc1)NC1=NN(c2ccccc2)C(=O)C1
At 26 µM (top of the series)
  activity, negative = inhibition: inactive

## Cc1csc(CNc2ncnc3ccc(-c4cccc(Cl)c4)cc23)c1
At 26 µM (top of the series)
  activity, negative = inhibition: inactive

## C[CH2][Hg][S]c1ccccc1C(=O)O
  AC50: 2.31 µM

## Cc1ccc(-c2cc(-c3ccc(F)cc3)c(C#N)c(N)n2)o1
At 26 µM (top of the series)
  activity, negative = inhibition: inactive

## CC(C)OC(=O)c1ccc(NCc2cc(O)ccc2O)cc1Cl
At 26 µM (top of the series)
  activity, negative = inhibition: inactive

## O=C(/C(=C\c1ccccc1)c1nc2ccccc2[nH]1)c1ccc(Cl)cc1
At 12 µM (top of the series)
  activity, negative = inhibition: inactive

## COc1ccc(C(=O)Nc2cc(C(=O)c3ccccc3)c(C)oc2=O)cc1
At 26 µM (top of the series)
  activity, negative = inhibition: inactive

## CCOc1ccc(S(=O)(=O)NCc2ccccn2)c(C)c1C
At 26 µM (top of the series)
  activity, negative = inhibition: inactive

## O=C(/C(=C/c1cccc(Cl)c1)c1nc2ccccc2[nH]1)c1ccccc1
At 26 µM (top of the series)
  activity, negative = inhibition: inactive

## Cc1ccc(N2C(=O)C3C4C=CC(CNC(=S)Nc5ccc(F)cc5)(O4)C3C2=O)cc1 (centres undefined)
At 26 µM (top of the series)
  activity, negative = inhibition: inactive

## CCCC1CCC(c2ccc(/C(N)=N/O)cc2)CC1 (centres undefined)
At 26 µM (top of the series)
  activity, negative = inhibition: inactive

## O=C(/C(=C/c1ccc(Cl)cc1)c1nc2ccccc2[nH]1)c1ccccc1
At 26 µM (top of the series)
  activity, negative = inhibition: inactive

## O=C1/C(=C\c2ccc(Cl)cc2)CCC1CNc1ccc(Cl)cc1 (centres undefined)
At 26 µM (top of the series)
  activity, negative = inhibition: inactive

## Cc1ccc(OCc2n[nH]c(=S)n2C2CCCCC2)cc1
At 26 µM (top of the series)
  activity, negative = inhibition: inactive

## Cc1ccc(N=c2ssnc2Cl)cc1
At 26 µM (top of the series)
  activity, negative = inhibition: inactive

## COc1ccc(NC(=S)Nc2ccc3snnc3c2)cc1
At 26 µM (top of the series)
  activity, negative = inhibition: inactive

## COc1cc(N=c2ssnc2Cl)c(OC)cc1Cl
At 26 µM (top of the series)
  activity, negative = inhibition: inactive

## CN(C)c1ccc(-c2cc(O)c3ncccc3c2)cc1
At 26 µM (top of the series)
  activity, negative = inhibition: inactive

## O=C1CC(c2ccccc2)CC(O)=C1C=Nc1cccc(Cl)c1 (centres undefined)
  AC50: 4.28 µM

## Cc1ccc(N2C(=O)C3C4C=CC(CNC(=S)Nc5cccc(Cl)c5)(O4)C3C2=O)cc1 (centres undefined)
At 26 µM (top of the series)
  activity, negative = inhibition: inactive

## Cc1cc(Br)c2c(c1)/C(=C/C(=O)c1cccs1)C(=O)N2
At 26 µM (top of the series)
  activity, negative = inhibition: inactive

## CCOC(=O)c1cc([N+](=O)[O-])cc([N+](=O)[O-])c1Sc1ncnc2nc[nH]c12
At 26 µM (top of the series)
  activity, negative = inhibition: inactive

## CCOc1cc(S(=O)(=O)NC2CCCCCC2)ccc1F
At 26 µM (top of the series)
  activity, negative = inhibition: inactive
